Experimental data as given in PMC12457078, “Inhibition of soluble epoxide hydrolase in endotoxin induced pig lung injury” (Frontiers in Pharmacology, 2025).
Where “and” joins values, the source holds several entries; their conditions need not be identical. Equal entries are not always repeated.

Tested on: sEH
Experiment: oxylipin analysis, epoxide/diol ratios (target engagement)
Assay type: in vivo, pig
Set-up: 14,15-DiHETE: unit not given beside the values; 12,13-DiHOME / 9,10-DiHODE / 11,12-DiHETrE / 14,15-DiHETrE / 10,11-DiHDPE / 19,20-DiHDPE / 13-HODE / 5-HETE / 11-HETE / 12-HETE / 5-HEPE / 9(10)-EpOME / 12(13)-EpOME / EKODE / 11(12)-EpETE: unit not given here
Protocol: All animals were monitored with pulse oximetry, heart rate, ECG, systemic arterial blood pressure (ABP), pulmonary arterial pressure (PAP), central venous pressure (CVP) temperature, tidal volumes, respiratory rate and end tidal carbon dioxide. At baseline, and at 3 h, 6 h and at the end of the experiment, pulmonary capillary wedge pressure (PCWP) was measured together with arterial and venous blood gas analyses, as well as cardiac output calculations. Routine chemistry, including creatinine, bilirubin, glucose, electrolytes were collected at baseline and at the end of the experiment (Vetscan VS2®, Abaxis, Griesheim, Germany). Blood samples for measurement of AEPU plasma concentrations, as well as oxylipins (i.e., EpETrEs and their DiHETrE corresponding diols as well as related compounds with other polyunsaturated fatty acid precursors), were collected at baseline, 6 h and at the end of the experiment.
This meant nine subjects in each group to achieve 90% power of detecting a difference of this size given α = 0.05. Anticipating that not all experiments would reach completion, we used a sample size of 22. The results were analyzed using SPSS Statistics, version 24 (IBM Corp., Armonk, N.Y., United States). Normality was examined with the Shapiro-Wilk test, together with examination of histograms of data. Continuous variables were compared using Student’s t-test or Mann Whitney U test, as appropriate. Categorical variables were compared using Fischer’s exact test. Statistical significance was set at α < 0.05. Oxylipins with at least 80% of observations above limit of detection at both timepoints were included in pairwise comparisons of ratios and fold-change evaluations where observations below limit of detection (LOD) were substituted with 0.5 x LOD.

[1] = animal 22, time 6, sample Schwein38

## CCOCCOCCOCCCCCNC(=O)NC12CC3CC(CC(C3)C1)C2 [sEH-i]
[1]
  8(9)-EpETrE: <LOD
  8,9-DiHETE: <LOD
  8,9-DiHETrE: 0.0757
  8-HETE: 0.0546
  9(10)-EpODE: 0.22
  9(10)-EpOME: 0.65
  9,10,13-TriHOME: 4.88
  9,10-DiHODE: 0.22
  9,10-DiHOME: 1.64
  9,12,13-TriHOME: <LOD
  9-HETE: <LOD
  9-HODE: 3.67
  9-HOTrE: 0.7165
  9-oxo-ODE: <LOD
  10(11)-EpDPE: <LOD
  10,11-DiHDPE: 0.03
  11(12)-EpETE: 0.07931
  11(12)-EpETrE: 0.0369
  11,12-DiHETE: 0.0372
  11,12-DiHETrE: 0.80
  11-HETE: 0.10
  12(13)-EpODE: 0.32
  12(13)-EpOME: 1.76
  12,13-DiHODE: 0.31
  12,13-DiHOME: 3.15
  12-HEPE: 0.0345
  12-HETE: 0.2294
  12-oxo-ETE: 2.84
  13(14)-EpDPE: <LOD
  13,14-DiHDPE: 0.13
  13-HODE: 19.79
  13-HOTrE: 1.01
  13-oxo-ODE: <LOD
  14(15)-EpETE: <LOD
  14(15)-EpETrE: 0.09
  14,15-DiHETrE: 1.47
  15(16)-EpODE: 4.31
  15,16-DiHODE: 14.18
  15-HEPE: <LOD
  15-HETE: 0.27
  15-HETrE: 0.12
  15-oxo-ETE: 0.03
  16(17)-EpDPE: <LOD
  16,17-DiHDPE: 0.28
  17(18)-EpETE: <LOD
  17,18-DiHETE: 1.29
  17-HDoHE: <LOD
  19(20)-EpDPE: <LOD
  19,20-DiHDPE: 1.67
  20-HETE: 0.10
  EKODE: 0.30
  LTB4: <LOD
  PGD2: <LOD
  PGE2: <LOD
  PGF2a: 0.18
  Resolvin D1: <LOD
  Resolvin D2: <LOD
  TXB2: 0.45
Animal 22, time 6, sample Schwein38, high blanks
  14,15-DiHETE: 0.2142
Time 0, individual pigs
  5(6)-EpETrE: <LOD
  5,6-DiHETrE: <LOD
  5-HEPE: 0.12 and 0.10 and 0.0352 and 0.0647 and 0.04
  5-HETE: 0.3505 and 0.4442 and 0.2569 and 0.292 and 0.2018
  5-oxo-ETE: <LOD and 0.13 and 0.12
  7(8)-EpDPE: <LOD
  7,8-DiHDPE: <LOD
  8(9)-EpETE: <LOD
  8(9)-EpETrE: <LOD
  8,9-DiHETE: <LOD
  8,9-DiHETrE: 0.05 and 0.0422 and <LOD and 0.06
  8-HETE: 0.06 and 0.08 and 0.053 and 0.0429
  9(10)-EpODE: 0.38 and 0.25 and <LOD
  9(10)-EpOME: 0.98 and 0.51 and 0.65 and 0.99 and 0.62
  9,10-DiHODE: 0.22 and 0.21 and 0.10 and 0.16 and 0.12
  9,10-DiHOME: 1.61 and 1.57 and 0.78 and 1.46 and 0.91
  9-HETE: <LOD
  9-HODE: 8.25 and 8.10 and 3.23 and 6.40 and 4.24
  9-HOTrE: 1.27 and 1.28 and 0.79 and 0.81 and 0.6856
  9-oxo-ODE: <LOD
  10(11)-EpDPE: <LOD
  10,11-DiHDPE: <LOD
  11(12)-EpETE: 0.1253 and 0.08781 and 0.1311 and 0.1265 and 0.1028
  11(12)-EpETrE: <LOD and 0.02 and 0.0347 and 0.03
  11,12-DiHETE: <LOD and 0.0219
  11,12-DiHETrE: 0.32 and 0.22 and 0.18 and 0.46 and 0.23
  11-HETE: 0.13 and 0.12 and 0.05 and 0.0453
  12(13)-EpODE: 0.71 and 0.48 and <LOD and 0.61 and 0.44
  12(13)-EpOME: 3.24 and 1.63 and 2.31 and 2.28 and 1.75
  12,13-DiHODE: 0.45 and 0.48 and 0.25 and 0.29
  12,13-DiHOME: 6.90 and 6.98 and 3.85 and 4.66 and 3.09
  12-HEPE: 0.04 and <LOD and 0.0173
  12-HETE: 0.1828 and 0.38 and 0.09618 and 0.1256 and 0.03983
  12-oxo-ETE: <LOD
  13(14)-EpDPE: <LOD
  13,14-DiHDPE: 0.05 and 0.018 and <LOD and 0.06 and 0.0275
  13-HODE: 29.61 and 29.96 and 13.26 and 18.81 and 12.94
